The test system of this assay is primary human tonsillar lymphocytes. Kind of assay: Toxicity in primary human tonsillar lymphocytes at 72 hours. It is filed as cell-based. Particulars: Lymphocyte, read-out: EC50 toxicity.

Take `CC(C)(C)c1cnc(CSc2cnc(NC(=O)C3CCN(CC(=O)NCCOCCOCCOCCNc4cccc5c4C(=O)N(C4CCC(=O)NC4=O)C5=O)CC3)s2)o1` (centres unmarked) [THAL-SNS-032]: the EC50 (usually the concentration giving half of the maximal effect) was about 0.015 µM.
The result for `CC(C)(C)c1cnc(CSc2cnc(NC(=O)C3CCNCC3)s2)o1` [SNS-032] reads about 0.15 µM.

For the origin of these results see paper PMC11629774 (Science (New York, N.Y.), 2024).
